Blank lines part the entries; values can stand above or below the compound they belong to.
Experiments:
[1] = target: T1, Tyrosinase (Agaricus bisporus, UniProt O42713); test: Inhibition of mushroom tyrosinase using L-DOPA as substrate incubated for 5 mins
T1 sequence (O42713 whole entry): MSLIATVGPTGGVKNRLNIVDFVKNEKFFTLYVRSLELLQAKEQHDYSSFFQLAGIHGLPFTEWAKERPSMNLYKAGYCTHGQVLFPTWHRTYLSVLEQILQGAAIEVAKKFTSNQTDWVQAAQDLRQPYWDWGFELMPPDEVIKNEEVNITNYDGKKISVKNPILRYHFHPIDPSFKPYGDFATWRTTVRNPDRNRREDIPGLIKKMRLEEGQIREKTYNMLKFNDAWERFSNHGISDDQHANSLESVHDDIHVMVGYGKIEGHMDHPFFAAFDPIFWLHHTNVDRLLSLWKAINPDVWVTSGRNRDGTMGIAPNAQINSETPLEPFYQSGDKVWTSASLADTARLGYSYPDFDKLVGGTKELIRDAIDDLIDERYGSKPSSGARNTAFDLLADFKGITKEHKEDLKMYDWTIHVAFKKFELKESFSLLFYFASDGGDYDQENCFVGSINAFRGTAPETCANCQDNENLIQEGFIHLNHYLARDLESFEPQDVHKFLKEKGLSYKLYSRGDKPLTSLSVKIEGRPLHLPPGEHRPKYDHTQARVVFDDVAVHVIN

[2] = test system: B16; test: Anti-melanoma activity against mouse B16 cells assessed as inhibition of tyrosinase activity incubated for 48 hrs by spectrophotometer analysis relative to control; format: functional
[3] = target: T1, Tyrosinase; test: Inhibition of mushroom tyrosinase using L-dopa as substrate assessed as monophenolase activity by microplate reader analysis
[4] = target: T1, Tyrosinase; test: Inhibition of mushroom tyrosinase using L-tyrosine as substrate assessed as […] activity by microplate reader analysis
[5] = target: T1, Tyrosinase; test: Inhibition of mushroom tyrosinase using L-DOPA as substrate incubated for 10 mins
[6] = target: T1, Tyrosinase; test: Inhibition of mushroom tyrosinase using L-dopa as substrate incubated for 30 mins by microplate reader analysis
[7] = target: T1, Tyrosinase; test: Inhibition of mushroom tyrosinase using L-tyrosine as substrate preincubated for 15 mins followed by substrate addition measured after 30 mins by plate reader analysis
[8] = target: T1, Tyrosinase; test: Inhibition of mushroom tyrosinase using L-tyrosine as substrate assessed as […] activity incubated for 20 mins by microplate reader analysis
[9] = target: T1, Tyrosinase; test: Inhibition of mushroom tyrosinase using L-DOPA as substrate assessed as monophenolase activity incubated for 20 mins by microplate reader analysis
[10] = target: T1, Tyrosinase; test: Inhibition of mushroom tyrosinase using L-dopa as substrate incubated for 30 mins by spectrophotometric analysis
[11] = target: T1, Tyrosinase; test: Inhibition of mushroom tyrosinase using L-DOPA as substrate incubated for 20 mins
[12] = target: T1, Tyrosinase; test: Inhibition of mushroom tyrosinase using L-DOPA as substrate by HTS analysis
[13] = target: T1, Tyrosinase; test: Inhibition of mushroom tyrosinase using L-tyrosine as a substrate incubated for 10 mins
[14] = target: T1, Tyrosinase; test: Inhibition of mushroom tyrosinase incubated for 20 mins by spectrophotometric assay
[15] = target: T1, Tyrosinase; test: Inhibition of mushroom tyrosinase using L-DOPA as substrate preincubated with compound for 15 mins by microplate reader analysis
[16] = target: T1, Tyrosinase; test: Inhibition of mushroom tyrosinase using L-DOPA as substrate assessed as inhibition constant preincubated with compound for 15 mins by microplate reader analysis
[17] = Antioxidant activity assessed as DPPH radical scavenging activity incubated for 30 mins under dark condition; format: functional
[18] = target: T1, Tyrosinase; test: Inhibition of mushroom tyrosinase using L-DOPA as substrate incubated for 30 mins
[19] = target: T1, Tyrosinase; test: Inhibition of mushroom tyrosinase using L-DOPA as substrate preincubated for 10 mins followed by substrate addition measured after 5 mins
[20] = target: T1, Tyrosinase
Description: Inhibition of mushroom tyrosinase using L-DOPA as substrate assessed as inhibition constant preincubated for 15 mins followed by substrate addition measured after 2 mins by microtitre plate reader analysis

[21] = target: T1, Tyrosinase; test: Inhibition of mushroom tyrosinase using L-DOPA as substrate preincubated for 10 mins followed by substrate addition measured after 20 mins by microtitre plate reader analysis
[22] = target: T1, Tyrosinase; test: Inhibition of mushroom tyrosinase using L-DOPA as substrate incubated for 10 mins by spectrophotometric assay
[23] = target: T1, Tyrosinase; test: Inhibition of mushroom tyrosinase using L-dopa as substrate assessed as diphenolase activity incubated for 30 mins by spectrophotometric method
[24] = target: T1, Tyrosinase; test: Inhibition of mushroom tyrosinase using L-dopa as substrate assessed as monophenolase activity incubated for 30 mins by spectrophotometric method
[25] = target: T2, Mushroom tyrosinase (Agaricus bisporus, UniProt O42713+Q00024+C7FF04+C7FF05); test: Inhibition of mushroom diphenolase
[26] = target: T2, Mushroom tyrosinase; test: Inhibition of mushroom monophenolase
[27] = target: T1, Tyrosinase; test: Inhibition of mushroom tyrosinase using L-dopa as substrate by spectrophotometric analysis

IC50 [1]: 2.63 µM
Structure (SMILES): OC[C@H]1O[C@H](Oc2cc(O)cc(CCc3ccc(O)cc3O)c2)[C@H](O)[C@@H](O)[C@@H]1O

Structure (SMILES): OC[C@H]1O[C@@H](Oc2ccc(O)cc2)[C@H](O)[C@@H](O)[C@@H]1O [ARBUTIN]
inhibition (INH) [2]: 55.4%

IC50 [3]: 20.5 µM
IC50 [4]: 7.5 µM
Structure (SMILES): COc1ccccc1/C=C/C=N/Nc1nnc(SCc2cc(=O)c(O)co2)n1C

IC50 [5]: 0.022 µM
Structure (SMILES): COc1cc(/C=C/C(=O)c2cc(OC)c(OC)c(-c3cc(C(=O)/C=C/c4ccc(O)c(OC)c4)cc(OC)c3OC)c2)ccc1O

IC50 [6]: 4.1 µM
Structure (SMILES): O=C1/C(=C/c2ccc(O)c(Br)c2)CSc2ccccc21

IC50 [7]: 69 µM
Structure (SMILES): CCCCOC(=O)/C=C/c1ccc(O)cc1

IC50 [8]: 0.013 µM
IC50 [9]: 0.93 µM
Structure (SMILES): O=C(/C=C/c1ccc(O)cc1O)c1cccs1

IC50 [10]: 4.77 µM
Structure (SMILES): COc1cc([N+](=O)[O-])ccc1/C=C/C(=N\O)c1cc2ccccc2cc1O

IC50 [11]: 1.58 µM
Structure (SMILES): CCOc1cc(/C=N/NC(=O)c2ccc(O)c(OC)c2)ccc1O

IC50 [12]: 108 µM
Structure (SMILES): CC(C)C(=O)Nc1nc(-c2ccc(O)cc2O)cs1

IC50 [13]: 15 µM
Structure (SMILES): O=C(O)CSc1nnc(NC(=S)Nc2cccc(C(F)(F)F)c2)s1

IC50 [14]: 15.2 µM
Structure (SMILES): O=C(/C=C/c1cccc(Cl)c1)NCCN1CCOCC1

IC50 [15]: 310 µM
Ki [16]: 76 µM
Structure (SMILES): O=P(O)(c1ccccc1)C(NCc1ccccc1)c1ccccn1 (centres undefined)

EC50 [17]: 0.94 mM/L
Structure (SMILES): CCOC(=O)C1=C(N)Oc2c(ccc3ccccc23)C1c1ccc(N(C)C)cc1 (centres undefined)

IC50 [18]: 8.96 µM
Structure (SMILES): O=C(COC(=O)c1ccc(O)cc1O)Oc1ccc2oc(=O)ccc2c1

IC50 [19]: 24.4 µM
Structure (SMILES): CC(=O)Nc1ccc(/N=N/c2c(N)nc(N)nc2Cl)cc1

Ki [20]: 1.64 µM
Structure (SMILES): CCn1c2ccccc2c2cc(NC(=O)CSc3nc4ccccc4[nH]3)ccc21

Structure (SMILES): COc1cccc2c1c(C(=O)C(=O)Nc1cc[nH]n1)cn2Cc1ccc(F)cc1
IC50 [5]: 224 µM

IC50 [21]: < 0.1 µM
Structure (SMILES): O=C1OC(c2ccccc2Br)=NC(=S)C1c1nn[nH]n1 (centres undefined)

IC50 [22]: 5.84 µM
Structure (SMILES): CCOC(OCC)c1ccc(/C=C/C(=O)C2CCc3ccccc3C2=O)cc1 (centres undefined)

IC50 [23]: 59.7 µM
IC50 [24]: 63.4 µM
Structure (SMILES): COc1cc(CC2C(=O)Nc3ccccc32)ccc1O (centres undefined)

Structure (SMILES): CC(=O)OC[C@H]1O[C@@H](Oc2ccc(O)cc2)[C@H](O)[C@@H](O)[C@@H]1O
inhibition (INH) [2]: 71.4%

Structure (SMILES): Nc1ccccc1C(=O)O [ANTHRANILIC ACID]
IC50 [25]: 4.72 µM
IC50 [26]: 5.15 µM

IC50 [27]: 0.61 µM
Structure (SMILES): O=C1CSC(c2ccccc2O)N1c1ccc(-c2ccc(N3C(=O)CSC3c3ccccc3O)cc2)cc1 (centres undefined)

Source: ChEMBL document CHEMBL5241093, “Recent advances in the design and discovery of synthetic tyrosinase inhibitors” (Eur J Med Chem, 2021)
